Assays:
[1] = biological target: KIF15/TPX2 protein-protein interaction (GST-KIF15 amino acids 1149-1388, His-TPX2 amino acids 346-747) (Homo sapiens (Human), UniProt Q9NS87); experiment: KIF15/TPX2 AlphaScreen assay; assay type: binding
Method: The protocol designed peptides corresponding to the appropriate domains of KIF15 (amino acids 1149-1388, GST-tagged) and TPX2 (amino acids 346-747, His-tagged), for use in the AlphaScreen assay.
Next, the protocol screened a total of 191,852 compounds from the KU-HTS library. Analysis identified 584 hits that inhibited the primary AlphaScreen TPX2-KIF15 interaction to greater than three standard deviations plus the plate inhibition-median. The 584 hits were tested for assay interference in the AlphaScreen counter-screen using His-GST fusion protein. […] Of the 467 hits, 399 inhibited the TPX2-KIF15 interaction in a dose-response manner. Refinement was conducted until identifying the compounds provided herein.
To identify compounds that inhibit KIF15-mediated bipolar spindle formation, a process that is dependent on KIF15 binding to TPX2, the protocol designed a high-throughput screen using AlphaScreen Technology. Previous studies predicted that KIF15-TPX2 binding is mediated through a C-terminal coiled-coil domain on KIF15 (amino acids 1149-1388; amino acids 1359-1380) that binds the C-terminal region of TPX2 (amino acids 475-715; amino acids 680-747)^50, 52, 57, 58. Based on these observations, the protocol designed peptides corresponding to the appropriate domains of TPX2 (amino acids 346-747, His-tagged), and KIF15 (amino acids 1149-1388, GST-tagged) for use in the AlphaScreen assay.
Next, the protocol screened a total of 191,852 compounds from the KU-HTS small-molecule compound collection. The protocol identified 584 hits that inhibited the primary AlphaScreen TPX2-KIF15 interaction to greater than three standard deviations plus the plate inhibition-median. The 584 hits were tested for assay interference in the AlphaScreen assay counter-screen using His-GST fusion protein eliminating 117 compounds^99. […] Of the 467 hits, 399 inhibited the KIF15-TPX2 interaction in a concentration-dependent manner (FIGS. 3A-3D), rendering them candidates for follow-on validation in orthogonal and counter-screen assays. Informed by computational and medicinal chemistry assessment^100, the protocol selected a representative subset of approximately 200 of the 399 compound hits for additional characterization. Samples for 177 compounds from the subset of approximately 200 representative compounds were available for purchase. Samples of these 177 compounds were purchased for structure verification by NMR and further characterization. There was enough compound sample procured to complete follow-on screening for 166 of the 177 compounds.

GST-KIF15 1149-1388 = GST-KIF15 1149-1388 (Homo sapiens (Human), UniProt Q9NS87); experiment: NMR (STD-NMR / WaterLOGSY) versus GST-KIF15; assay type: binding; conditions: for NMR Versus GST-KIF15: Hit / No; for WaterLOGSY binding to GST-KIF15: 1:150 GST-KIF15 1149-1388
Chain of GST-KIF15 1149-1388 (Q9NS87 1149-1388): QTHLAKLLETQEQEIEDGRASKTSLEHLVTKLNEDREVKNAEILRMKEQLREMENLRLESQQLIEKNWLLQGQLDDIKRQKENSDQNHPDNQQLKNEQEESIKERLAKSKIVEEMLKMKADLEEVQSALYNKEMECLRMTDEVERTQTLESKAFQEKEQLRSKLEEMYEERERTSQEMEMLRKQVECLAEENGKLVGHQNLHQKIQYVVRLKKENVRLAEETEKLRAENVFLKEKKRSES
Method: (§1) WaterLOGSY NMR Spectra of Compounds A1 and B2 are provided.
Various cocktails of compounds were prepared to test for interactions. 100 μL DMSO-d6 was added to 3 mg of material. 26 cocktails of 6 compounds were prepared and 3 cocktails of 7 compounds were prepared. Then, 3 μM protein is added to 300 μM of the cocktails in 10% D2O buffer. Concentration of compounds is 10 mM each.
(§2) The 166 compound hit samples were further characterized for KIF15 or TPX2 binding using biophysical saturation transfer difference nuclear magnetic resonance (STD-NMR) and WaterLOGSY assays. The 166 compound samples were screened by STD-NMR for evidence of binding to GST-KIF15 or His-TPX2. In our assessment, no hits bound to His-TPX2. The protocol counter-screened potential hits against a His-GST peptide^99 and for aggregation using protein-free controls. Ultimately, three compound hits representing two compound chemotypes were validated to bind KIF15 by WaterLOGSY (FIGS. 4A-4B).

His-TPX2 346-747 = His-TPX2 346-747 (Homo sapiens (Human), UniProt Q9ULW0); experiment: NMR (STD-NMR / WaterLOGSY) versus His-TPX2; assay type: binding; conditions: 1:150 His-TPX2 346-747
Chain of His-TPX2 346-747 (Q9ULW0 346-747): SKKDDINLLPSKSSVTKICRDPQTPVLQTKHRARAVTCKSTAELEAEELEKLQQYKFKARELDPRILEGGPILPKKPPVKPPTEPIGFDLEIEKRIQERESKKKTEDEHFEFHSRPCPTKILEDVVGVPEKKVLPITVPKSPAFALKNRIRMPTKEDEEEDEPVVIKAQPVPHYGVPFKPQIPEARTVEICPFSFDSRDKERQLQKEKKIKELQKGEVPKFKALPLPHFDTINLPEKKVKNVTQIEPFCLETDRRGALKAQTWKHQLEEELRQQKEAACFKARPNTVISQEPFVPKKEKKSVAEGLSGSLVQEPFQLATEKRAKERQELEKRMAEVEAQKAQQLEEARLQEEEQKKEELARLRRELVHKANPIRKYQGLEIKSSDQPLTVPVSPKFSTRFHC
From the text: as §1, §2

KIF15-HiBiT = KIF15-HiBiT (Homo sapiens (Human), UniProt Q9NS87); experiment: Cellular thermal shift assay (CETSA), HiBiT split luciferase; assay type: cell-based; conditions: 100 μM
Chain of KIF15-HiBiT (Q9NS87 whole entry, the tested form may be a part): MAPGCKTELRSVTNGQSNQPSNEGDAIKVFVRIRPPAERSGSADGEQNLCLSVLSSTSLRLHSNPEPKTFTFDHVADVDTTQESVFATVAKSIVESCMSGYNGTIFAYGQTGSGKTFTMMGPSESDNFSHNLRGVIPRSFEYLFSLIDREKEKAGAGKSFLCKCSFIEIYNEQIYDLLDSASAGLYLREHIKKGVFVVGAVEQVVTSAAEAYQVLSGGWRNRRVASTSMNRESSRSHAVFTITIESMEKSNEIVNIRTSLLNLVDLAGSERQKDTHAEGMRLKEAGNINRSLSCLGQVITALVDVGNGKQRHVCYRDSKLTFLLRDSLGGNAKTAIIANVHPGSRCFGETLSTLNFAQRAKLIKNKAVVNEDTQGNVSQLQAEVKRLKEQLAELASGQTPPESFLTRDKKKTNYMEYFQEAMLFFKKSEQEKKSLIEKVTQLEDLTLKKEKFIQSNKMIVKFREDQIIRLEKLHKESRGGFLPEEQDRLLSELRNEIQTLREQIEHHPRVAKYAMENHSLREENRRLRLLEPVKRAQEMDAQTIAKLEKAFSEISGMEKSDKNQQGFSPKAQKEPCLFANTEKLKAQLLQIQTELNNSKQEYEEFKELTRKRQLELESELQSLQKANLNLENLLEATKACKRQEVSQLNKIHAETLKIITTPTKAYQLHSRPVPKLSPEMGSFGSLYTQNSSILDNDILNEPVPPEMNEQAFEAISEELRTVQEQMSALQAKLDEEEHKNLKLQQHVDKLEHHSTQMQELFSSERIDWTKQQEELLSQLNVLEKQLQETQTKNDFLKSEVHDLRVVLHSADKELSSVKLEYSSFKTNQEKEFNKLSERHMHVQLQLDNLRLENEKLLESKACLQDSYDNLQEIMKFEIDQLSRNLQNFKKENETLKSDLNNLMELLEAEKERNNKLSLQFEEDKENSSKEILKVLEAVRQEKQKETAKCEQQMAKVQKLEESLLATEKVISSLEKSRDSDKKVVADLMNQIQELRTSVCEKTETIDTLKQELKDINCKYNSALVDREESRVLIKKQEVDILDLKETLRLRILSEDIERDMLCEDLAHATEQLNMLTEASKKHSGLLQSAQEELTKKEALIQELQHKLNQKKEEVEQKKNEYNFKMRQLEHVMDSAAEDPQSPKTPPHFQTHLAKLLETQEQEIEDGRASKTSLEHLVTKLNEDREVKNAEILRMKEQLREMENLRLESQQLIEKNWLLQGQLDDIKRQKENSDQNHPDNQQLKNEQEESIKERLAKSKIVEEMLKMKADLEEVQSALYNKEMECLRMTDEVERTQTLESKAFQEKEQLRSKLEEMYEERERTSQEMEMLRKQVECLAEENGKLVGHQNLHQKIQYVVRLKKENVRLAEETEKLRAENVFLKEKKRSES
Method: To verify that the three putative binders of KIF15 identified by NMR spectroscopy against KIF15 fragments, a cellular thermal shift assay was performed. All three compounds at 100 μM stabilized KIF15 when thermally challenged to a greater extent than the TPX2 mimetic peptide used as a positive control (Δ5.7° C. for compound A1, Δ5.3° C. for compound A2, and Δ9.6° C. for compound B1, Δ2.1° C. for TPX2 mimetic peptide).
The HiBiT Split Luciferase based protein detection method utilized for screening of candidate compounds for physical binding to KIF15. […] The increase in stability of the protein indicates ligand engagement by stabilizing the protein in a natured conformation.
These three compound hits, referred to as Compounds A1, A2 and B1 (FIG. 3A) were screened for target engagement in CETSA. In short, a split luciferase tag known as HiBiT (Promega, Madison, WI) was fused to the KIF15 protein in a transient expression vector. Soluble protein can be easily quantified by adding the LgBiT subunit of nano luciferase. A stabilizing shift in the melting temperature of the protein indicates the protein is being stabilized by the engaged small molecule indicating direct binding of the small molecule to its target.

[2] = tested on: EOC cell lines (A2780, OVCAR5, and SKOV3); experiment: Synergy with ispinesib in cell viability (Bliss score); assay type: cell-based; conditions: combination with ispinesib
From the text: The protocol tested all 166 samples of compound hits for complete screening for synergism in KIF11-inhibited cells EOC cell lines (A2780, OVCAR5, and SKOV3) (FIGS. 5A-5C).
Bliss score analyzes the statistical independence of the two treatments. A positive score indicates synergism, a negative score indicates antagonism and a score of zero indicates a purely additive effect of the combination therapy.

Chain of KIF15/TPX2 protein-protein interaction (GST-KIF15 amino acids 1149-1388, His-TPX2 amino acids 346-747) (Q9NS87 1149-1388): as the sequence (Q9NS87 1149-1388) above

Structure (SMILES) | IC50 [1] [µM] | IC50 (TruHits counter-screen) [µM] | NMR Versus GST-KIF15 (GST-KIF15 1149-1388) | WaterLOGSY binding to GST-KIF15 (GST-KIF15 1149-1388) | WaterLOGSY / STD-NMR binding to His-TPX2 (His-TPX2 346-747) | shift in thermostability of KIF15 (KIF15-HiBiT) | synergy with ispinesib in inhibition of growth [2]
CCCN1CCN(c2ncc3c(n2)CCN(Cc2ccc(OCC)c(OC)c2)C3)CC1 [Compound 13, 6-(4-ethoxy-3-methoxybenzyl)-2-(4-propylpiperazin-1-yl)-5,6,7,8-tetrahydropyrido[4,3-d]pyrimidine] | 44.8 ± 0.2 | 664 ± 103 | No |  |  |  | 
CCN1CCN(c2ncc3c(n2)CCN(Cc2ccc(F)cc2F)C3)CC1 [Compound 16, 6-(2,4-difluorobenzyl)-2-(4-ethylpiperazin-1-yl)-5,6,7,8-tetrahydropyrido[4,3-d]pyrimidine] |  |  | No |  |  |  | 
CCCN1CCN(c2ncc3c(n2)CCN(Cc2ccc(OCC)c(OCC)c2)C3)CC1 [Compound 3, 6-(3,4-diethoxybenzyl)-2-(4-propylpiperazin-1-yl)-5,6,7,8-tetrahydropyrido[4,3-d]pyrimidine] | 42.2 ± 3.3 | 510 ± 6 | No |  |  |  | 
CCCN1CCN(c2ncc3c(n2)CCN(Cc2cccc(Br)c2)C3)CC1 [Compound 5, 6-(3-bromobenzyl)-2-(4-propylpiperazin-1-yl)-5,6,7,8-tetrahydropyrido[4,3-d]pyrimidine] | 21 | 287 ± 8 | Hit |  |  |  | 
CCOc1ccc(CN2CCc3nc(N4CCN(CC)CC4)ncc3C2)cc1OCC [Compound 7, 6-(3,4-diethoxybenzyl)-2-(4-ethylpiperazin-1-yl)-5,6,7,8-tetrahydropyrido[4,3-d]pyrimidine] | 2.8 ± 0.3 | 176 ± 9 | No |  |  |  | 
CCCN1CCN(c2ncc3c(n2)CCN(Cc2ccc(Br)cc2)C3)CC1 [Compound 6, 6-(4-bromobenzyl)-2-(4-propylpiperazin-1-yl)-5,6,7,8-tetrahydropyrido[4,3-d]pyrimidine] | 13.6 ± 1.2 | 628 ± 35 | Hit |  |  |  | 
CCCN1CCN(c2ncc3c(n2)CCN(Cc2cccc(F)c2F)C3)CC1 [Compound 2, 6-(2,3-difluorobenzyl)-2-(4-propylpiperazin-1-yl)-5,6,7,8-tetrahydropyrido[4,3-d]pyrimidine] | 27.8 ± 4.7 | 428 ± 38 | No |  |  |  | 
CCN1CCN(c2ncc3c(n2)CCN(Cc2cccc(OC)c2OC)C3)CC1 [Compound 17, 6-(2,3-dimethoxybenzyl)-2-(4-ethylpiperazin-1-yl)-5,6,7,8-tetrahydropyrido[4,3-d]pyrimidine] |  |  | No |  |  |  | 
CCN1CCN(c2ncc3c(n2)CCN(Cc2ccc(OC(C)C)c(OC)c2)C3)CC1 [Compound 19, 2-(4-ethylpiperazin-1-yl)-6-(4-isopropoxy-3-methoxybenzyl)-5,6,7,8-tetrahydropyrido[4,3-d]pyrimidine] |  |  | No |  |  |  | 
CCCN1CCN(c2ncc3c(n2)CCN(Cc2ccc(Br)s2)C3)CC1 [Compound 4, 6-((5-bromothiophen-2-yl)methyl)-2-(4-propylpiperazin-1-yl)-5,6,7,8-tetrahydropyrido[4,3-d]pyrimidine] | 23 ± 1.6 | 312 ± 79 | Hit |  |  |  | 
CCCN1CCN(c2ncc3c(n2)CCN(Cc2ccc(CC)cc2)C3)CC1 [Compound 1, 6-(4-ethylbenzyl)-2-(4-propylpiperazin-1-yl)-5,6,7,8-tetrahydropyrido[4,3-d]pyrimidine] | 32.2 ± 4.6 | 393 ± 13 | No |  |  |  | 
CCN1CCN(c2ncc3c(n2)CCN(Cc2cc(OC)c(OC)c(OC)c2)C3)CC1 [Compound 11, 2-(4-ethylpiperazin-1-yl)-6-(3,4,5-trimethoxybenzyl)-5,6,7,8-tetrahydropyrido[4,3-d]pyrimidine] | 2.5 ± 0.8 | 556 ± 38 | No |  |  |  | 
CCCN1CCN(c2ncc3c(n2)CCN(Cc2cc(Br)cs2)C3)CC1 [Compound 15, 6-((4-bromothiophen-2-yl)methyl)-2-(4-propylpiperazin-1-yl)-5,6,7,8-tetrahydropyrido[4,3-d]pyrimidine] |  |  | Hit |  |  |  | 
CCOc1ccc(CN2CCc3nc(N4CCN(CC)CC4)ncc3C2)cc1OC [Compound 12, 6-(4-ethoxy-3-methoxybenzyl)-2-(4-ethylpiperazin-1-yl)-5,6,7,8-tetrahydropyrido[4,3-d]pyrimidine] | 3.5 ± 0.5 | 305 ± 13 | No |  |  |  | 
CCN1CCN(c2ncc3c(n2)CCN(Cc2ccccc2Cl)C3)CC1 [Compound 10, 6-(2-chlorobenzyl)-2-(4-ethylpiperazin-1-yl)-5,6,7,8-tetrahydropyrido[4,3-d]pyrimidine] | 1.5 ± 0.01 | 86 ± 16 | Hit | indicates binding | not observed | significant shift in thermostability | Synergy
CCN1CCN(c2ncc3c(n2)CCN(Cc2cc(OC)c(OC)cc2OC)C3)CC1 [Compound 8, 2-(4-ethylpiperazin-1-yl)-6-(2,4,5-trimethoxybenzyl)-5,6,7,8-tetrahydropyrido[4,3-d]pyrimidine] | 2.4 ± 0.1 | 120 ± 5.2 | No |  |  |  | 
CCOc1cccc(CN2CCc3nc(N4CCN(CC)CC4)ncc3C2)c1 [Compound 20, 6-(3-ethoxybenzyl)-2-(4-ethylpiperazin-1-yl)-5,6,7,8-tetrahydropyrido[4,3-d]pyrimidine] |  |  | No |  |  |  | 
CCN1CCN(c2ncc3c(n2)CCN(Cc2cc(Br)cs2)C3)CC1 [Compound 18, 6-((4-bromothiophen-2-yl)methyl)-2-(4-ethylpiperazin-1-yl)-5,6,7,8-tetrahydropyrido[4,3-d]pyrimidine] |  |  | Hit |  |  |  | 
C=CCn1c(C(=O)NCc2ccccn2)cc2sc(C)cc21 [Compound 14, 4-allyl-2-methyl-N-(pyridin-2-ylmethyl)-4H-thieno[3,2-b]pyrrole-5-carboxamide] | 5.6 ± 0.3 | 87 ± 2 |  | indicates binding | not observed | significant shift in thermostability | Synergy
CCN1CCN(c2ncc3c(n2)CCN(Cc2ccc(OC)c(OC)c2OC)C3)CC1 [Compound 9, 2-(4-ethylpiperazin-1-yl)-6-(2,3,4-trimethoxybenzyl)-5,6,7,8-tetrahydropyrido[4,3-d]pyrimidine] | 1.7 ± 0.1 | 196 ± 0.1 | No |  |  |  | 

From patent publication US20240342179A1, “TREATMENT OF CANCERS OR NEOPLASMS BY INHIBITING KIF15” (University of Kansas, priority 2023, published 2024)
